The supplement of paper PMC10307832

What was measured:
Assay in all cases: relative viability (nuclei count vs DMSO), 5 days (fraction); higher = more cells survive
KN-93 + Palbociclib = compound: CN(C/C=C/C1=CC=C(C=C1)Cl)CC2=CC=CC=C2N(CCO)S(=O)(=O)C3=CC=C(C=C3)OC [KN-93] + CC(=O)c1c(C)c2cnc(Nc3ccc(N4CCNCC4)cn3)nc2n(C2CCCC2)c1=O [Palbociclib] (partner 0.5 µM)
In short: (§1)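 Relative viability divides the nuclei count in treated wells by that in vehicle wells. Lung cancer cell lines were seeded in 1536-well plates, dosed by pin tool the next day, and fixed and stained after 5 days in one step with final 0.05% Triton X-100, 1% formaldehyde and 1 ug/ml Hoechst. Dosing was a single drug or a fixed anchor-drug dose plus five library-drug doses (not always all listed) in √10 steps, and values are medians of duplicate plates imaged at 4×.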

KN-93 + Bortezomib = compound: CN(C/C=C/C1=CC=C(C=C1)Cl)CC2=CC=CC=C2N(CCO)S(=O)(=O)C3=CC=C(C=C3)OC [KN-93] + CC(C)C[C@H](NC(=O)[C@H](Cc1ccccc1)NC(=O)c1cnccn1)B(O)O [Bortezomib] (partner 0.002 µM)
In short: as §1

KN-93 + OSI-027 = compound: CN(C/C=C/C1=CC=C(C=C1)Cl)CC2=CC=CC=C2N(CCO)S(=O)(=O)C3=CC=C(C=C3)OC [KN-93] + COc1cccc2cc(-c3nc([C@H]4CC[C@H](C(=O)O)CC4)n4ncnc(N)c34)[nH]c12 [OSI-027] (partner 0.5 µM)
In short: as §1

KN-93 + Tozasertib = compound: CN(C/C=C/C1=CC=C(C=C1)Cl)CC2=CC=CC=C2N(CCO)S(=O)(=O)C3=CC=C(C=C3)OC [KN-93] + Cc1cc(Nc2cc(N3CCN(C)CC3)nc(Sc3ccc(NC(=O)C4CC4)cc3)n2)n[nH]1 [Tozasertib] (partner 0.1 µM)
In short: as §1

KN-93 + Pemetrexed = compound: CN(C/C=C/C1=CC=C(C=C1)Cl)CC2=CC=CC=C2N(CCO)S(=O)(=O)C3=CC=C(C=C3)OC [KN-93] + Nc1nc2[nH]cc(CCc3ccc(C(=O)N[C@@H](CCC(=O)O)C(=O)O)cc3)c2c(=O)[nH]1 [Pemetrexed] (partner 0.2 µM)
In short: as §1

| Cell Line | relative viability (KN-93 + Palbociclib; first compound 0.08 µM) | relative viability (KN-93 + Palbociclib; first compound 0.253 µM) | relative viability (KN-93 + Palbociclib; first compound 2.53 µM) | relative viability (KN-93 + Palbociclib; first compound 8 µM) | relative viability (KN-93 + Bortezomib; first compound 0.08 µM) | relative viability (KN-93 + Bortezomib; first compound 0.253 µM) | relative viability (KN-93 + Bortezomib; first compound 2.53 µM) | relative viability (KN-93 + Bortezomib; first compound 8 µM) | relative viability (KN-93 + OSI-027; first compound 0.08 µM) | relative viability (KN-93 + OSI-027; first compound 0.253 µM) | relative viability (KN-93 + OSI-027; first compound 2.53 µM) | relative viability (KN-93 + OSI-027; first compound 8 µM) | relative viability (KN-93 + Tozasertib; first compound 0.08 µM) | relative viability (KN-93 + Tozasertib; first compound 0.253 µM) | relative viability (KN-93 + Tozasertib; first compound 2.53 µM) | relative viability (KN-93 + Tozasertib; first compound 8 µM) | relative viability (KN-93 + Pemetrexed; first compound 0.08 µM) | relative viability (KN-93 + Pemetrexed; first compound 0.253 µM) | relative viability (KN-93 + Pemetrexed; first compound 2.53 µM) | relative viability (KN-93 + Pemetrexed; first compound 8 µM) |
| --- | --- | --- | --- | --- | --- | --- | --- | --- | --- | --- | --- | --- | --- | --- | --- | --- | --- | --- | --- | --- |
| SW 1573 | 0.395 | 0.47 | 0.429 | 0.15 | 1.04 | 1.23 | 0.973 | 0.763 | 0.473 | 0.689 | 0.584 | 0.252 | 0.177 | 0.22 | 0.191 | 0.19 | 1.07 | 0.916 | 0.981 | 0.307 |
| NCI-H596 |  |  |  |  | 1.02 | 1.29 | 1.18 | 0.942 | 0.769 | 0.726 | 0.755 | 0.252 | 0.783 | 1.02 | 1.06 | 0.747 | 0.528 | 0.493 | 0.589 | 0.455 |
| NCI-H1793 | 0.38 | 0.311 | 0.318 | 0.253 |  |  |  |  | 0.242 | 0.245 | 0.261 | 0.152 | 0.305 | 0.23 | 0.315 | 0.258 | 0.97 | 0.899 | 1.1 | 0.528 |
| NCI-H2170 | 0.35 | 0.48 | 0.403 | 0.338 |  |  |  |  | 0.713 | 0.712 | 0.728 | 0.567 | 0.755 | 0.845 | 0.729 | 0.454 | 0.268 | 0.302 | 0.276 | 0.252 |
| LK-2 | 0.775 | 1.12 | 0.834 | 0.559 |  |  |  |  | 0.207 | 0.182 | 0.189 | 0.165 | 0.212 | 0.191 | 0.163 | 0.158 | 0.275 | 0.273 | 0.288 | 0.2 |
| HCC-366 | 0.407 | 0.531 | 0.563 | 0.221 |  | 1.48 | 1.57 | 0.955 | 0.758 | 0.696 | 0.894 | 0.235 | 0.0849 | 0.0834 | 0.111 | 0.0411 | 0.157 | 0.175 | 0.189 | 0.133 |
| NCI-H661 | 0.439 | 0.409 | 0.308 | 0.308 | 0.735 | 0.901 | 0.713 | 0.665 | 0.693 | 0.741 | 0.606 | 0.273 | 0.365 | 0.355 | 0.342 | 0.36 | 0.89 | 1.15 | 0.753 | 0.504 |
| NCI-H2085 | 0.484 | 0.427 | 0.456 | 0.387 | 0.909 | 1.12 | 1.16 | 0.663 | 0.733 | 0.639 | 0.806 | 0.597 | 0.667 | 0.662 | 0.873 | 0.369 | 0.933 | 0.905 | 0.883 | 0.739 |
| NCI-H1437 | 0.325 | 0.285 | 0.271 | 0.294 | 0.465 | 0.564 | 0.53 | 0.365 | 0.885 | 0.984 | 0.852 | 0.651 | 0.37 | 0.433 | 0.383 | 0.264 | 0.317 | 0.312 | 0.247 | 0.19 |
| HCC-44 | 1.04 | 0.878 | 0.979 | 0.79 | 0.834 | 0.801 | 1.03 | 0.751 | 0.547 | 0.482 | 0.555 | 0.391 | 0.912 | 0.809 | 0.863 | 0.526 | 0.652 | 0.615 | 0.667 | 0.678 |
| NCI-H3122 | 0.127 | 0.181 | 0.229 | 0.184 | 1.06 | 1.07 | 1.13 | 1.03 | 0.967 | 1.04 | 1.04 | 0.631 | 0.385 | 0.39 | 0.469 | 0.389 | 0.199 | 0.194 | 0.19 | 0.341 |
| NCI-H1395 | 0.602 | 0.69 | 0.598 | 0.478 |  |  |  |  | 0.702 | 0.666 | 0.707 | 0.469 | 0.733 | 0.671 | 0.8 | 0.476 | 0.972 | 0.926 | 0.86 | 0.489 |
| ChaGo-K-1 | 0.899 | 1.02 | 0.946 | 0.829 | 1.33 | 1.18 | 1.15 | 0.536 | 0.585 | 0.512 | 0.449 | 0.426 | 0.234 | 0.232 | 0.243 | 0.2 | 0.264 | 0.259 | 0.246 | 0.258 |
| NCI-H1734 | 0.345 | 0.396 | 0.335 | 0.263 | 0.941 | 0.902 | 1.1 | 0.566 | 0.53 | 0.574 | 0.605 | 0.404 | 0.254 | 0.27 | 0.264 | 0.215 | 0.457 | 0.478 | 0.399 | 0.417 |
| NCI-H460 | 0.167 | 0.0991 | 0.147 | 0.205 | 0.813 | 1.93 |  | 0.717 | 0.863 | 0.825 | 0.603 | 0.223 | 0.397 | 0.104 | 0.381 | 0.153 | 0.0661 | 0.0588 | 0.0591 | 0.0687 |
| NCI-H2087 | 0.228 | 0.218 | 0.208 | 0.175 | 0.759 | 1.24 | 0.874 | 0.33 | 0.481 | 0.566 | 0.586 | 0.491 | 0.248 | 0.238 | 0.267 | 0.152 | 0.694 | 0.672 | 0.564 | 0.607 |
